US9464283B2, “Signaling compositions, methods, and systems for effecting plant growth and crop enhancement” (KamTec, LLC, priority 2013, dated 2016)
Values joined by “and” are separate entries in the source; they are usually repeats but may differ in a detail not shown here. Equal values may be shown once.

Key:
Melody variety sunflower = test: Sunflower seed soak, field plots; format: in vivo; settings: per Rep; 3 ppm, three hours seed soak
Description: In this preferred embodiment of the present invention, sunflower seeds were selected from the Melody variety and were soaked for three hours in solutions containing 0.05% Tween 20 and BMTA or BMPA, at a concentration of 3 ppm. Another group of seeds of the same variety was soaked in a solution with only in 0.05% Tween 20 added (control). Following soaking, seeds were desiccated to storage moisture contents and BMTA, BMPA and control seeds were sown in three twenty-five foot plots (Reps) each on May 21 (plots were arranged in a randomized block design). On September 16, sunflower heads were harvested, with a harvest of around 20 heads per plot/Rep on average. The heads were hand-threshed to collect seeds. Moisture, count, and weight data was collected on seeds from each head.

[1] = test system: 'M-202' medium-grain rice (Oryza sativa L.); test: Rice seed soak with NaCl irrigation (salt tolerance); format: in vivo; settings: 5 ppm, 1500 ppm NaCl irrigation, planting through completion of study
Protocol: In another preferred embodiment of the present invention, seeds are soaked in prepared bio-regulator solutions for a period of three hours. Rice seeds were selected from ‘M-202’ medium-grain rice (Oryza sativa L.), (Reg. no 72) PI494105 type grains; this selection was meant to represent a typical California rice seed, and was not meant to be limiting. The bio-regulator solutions are prepared using 5 ppm BMTA solution with 0.05% v/v Kinetic® made by Helena Chemical Company. The solution was drained and the seeds planted in starter plastic containers with potting soil. After germination and having grown to 4 inches in height, the plants were transplanted into 6 inch diameter plastic containers. Two sets of three pots each were set up for this study; one set for the test group and one set for the control group. Both the control and test studies were irrigated with 1500 ppm NaCl solution from time of planting until the study was completed. The purpose of the NaCl irrigation was to determine the effect of the bio-regulator treatment in regards to salt tolerances.

'M-202' rice = test: Rice seed soak 24 hours, tap water irrigation; format: in vivo, Oryza sativa L.; settings: 5 ppm, 24 hours soak
Protocol: In this preferred embodiment of the present invention, seeds are soaked in prepared bio-regulator solutions for a period of 24 hours. Rice seeds were selected from the same ‘M-202’ type grains as in the previous study. The bio-regulator solutions were prepared using 5 ppm BMPA solution. The solution was drained and seeds planted in starter plastic containers filled with potting soil. After germination and plant growth reaching height of four inches, rice seedlings were transplanted from their greenhouse containers to six-inch diameter plastic containers and placed outdoor. Again, two sets of three pots for the control and test group were used. These studies were also carried out using an increased amount of BMPA. The amount was increased from 1 ppm to 5 ppm, and the results of the study were similar to the results outlined in the paragraph above.

[2] = test system: aphid infestation on cotton Bt plant; test: Aphid infestation of cotton Bt plants after seed soak; format: in vivo; settings: 5 ppm BMPA seed soak
Protocol: In this preferred embodiment of the present invention, seeds were soaked for a period of 3 hours in the bio-regulator solution. Cotton Bt were selected and studied to determine if bio-regulator chemistry will enhance or influence the inserted Bt genes of the transgenic plant. The seeds were separated into two different sets on July 2. The first set, Set 1, was soaked in 5 ppm BMPA solution with 0.05% Kinetic®. The second set, Set 2, was soaked in water with 0.05% v/v Kinetic®. The solution was drained and the treated seeds planted in starter plastic trays. After germination and after the seedlings reached the height of four inches, the cotton Bt plants were transplanted into larger six-inch plastic containers. The cotton plants were placed outdoors for the duration of the study. The different sets of plants were regularly observed throughout this study.

Row | SMILES | % Moist (Melody variety sunflower) | observed growth of rice plant [1] | observed growth of rice plant ('M-202' rice) | delay of the infestation of aphids [2]
1 | Cc1ccc(C(=O)OCCN(C)Cc2ccccc2)cc1 [BMTA] | 13.10% and 13.01% and 14.82% | enhanced growth | – | –
2 | CN(CCOC(=O)COc1ccccc1)Cc1ccccc1 [BMPA] | 13.52% and 13.93% and 12.37% | – | enhanced growth | ≤ 19 days
